According to patent US20060069132A1, “Azolecarboxamide herbicides” (priority 2004, published 2006):

How the values were obtained:
[1] = tested on: bermudagrass; test: Test C pre-/postemergence herbicide test; format: in vivo, Cynodon dactylon; conditions: for Plant response rating (0 = no effect, 100 = complete control), Bermudagrass / Plant response rating, Bermudagrass: preemergence; for Bermudagrass plant response rating: Preemergence
Method in brief: (§1)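 Pre- and postemergence application, solvent/surfactant formulation; post at 1- to 4-leaf stage (2–18 cm). Greenhouse 12–14 d. Visual rating vs controls, 0 = no effect, 100 = complete control.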

[2] = tested on: large crabgrass; test: Test C pre-/postemergence herbicide test; format: in vivo, Digitaria sanguinalis; conditions: for Plant response rating (0 = no effect, 100 = complete control), Crabgrass, Large / Plant response rating, Crabgrass, Large: preemergence; for Crabgrass, Large plant response rating: Preemergence, scale 0 to 100, 0 no effect, 100 complete control
Method in brief: as §1

[3] = tested on: giant foxtail; test: Test C pre-/postemergence herbicide test; format: in vivo, Setaria faberi; conditions: for Plant response rating (0 = no effect, 100 = complete control), Foxtail, Giant / Plant response rating, Foxtail, Giant: preemergence; for Foxtail, Giant plant response rating: Preemergence, scale 0 to 100, 0 no effect, 100 complete control
Method in brief: as §1

[4] = tested on: kochia; test: Test C pre-/postemergence herbicide test; format: in vivo, Kochia scoparia; conditions: for Plant response rating (0 = no effect, 100 = complete control), Kochia / Plant response rating, Kochia: preemergence; for Kochia plant response rating: Preemergence, scale 0 to 100, 0 no effect, 100 complete control
Method in brief: as §1

[5] = tested on: lambsquarters; test: Test C pre-/postemergence herbicide test; format: in vivo, Chenopodium album; conditions: for Plant response rating (0 = no effect, 100 = complete control), Lambsquarters / Plant response rating, Lambsquarters: preemergence; for Lambsquarters plant response rating: Preemergence, scale 0 to 100, 0 no effect, 100 complete control
Method in brief: as §1

[6] = tested on: soybean; test: Test C pre-/postemergence herbicide test; format: in vivo, Glycine max; conditions: for Plant response rating (0 = no effect, 100 = complete control), Soybean / Plant response rating, Soybean: preemergence; for Soybean plant response rating: Preemergence, scale 0 to 100, 0 no effect, 100 complete control
Method in brief: as §1

[7] = tested on: common (oilseed) sunflower; test: Test C pre-/postemergence herbicide test; format: in vivo, Helianthus annuus; conditions: for Plant response rating (0 = no effect, 100 = complete control), Sunflower / Plant response rating, Sunflower: preemergence; for Sunflower plant response rating: Preemergence, scale 0 to 100, 0 no effect, 100 complete control
Method in brief: as §1

[8] = tested on: rice; test: Test C flooded paddy test; format: in vivo, Oryza sativa
Method in brief: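 Plants were grown to the 1- to 4-leaf stage (2–18 cm) and then treated postemergence, or grown to the 2-leaf stage for the flooded paddy test. They were held in a greenhouse for 12 to 14 days and then scored by eye against controls, where 0 is no effect and 100 is complete control.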

[9] = tested on: ducksalad; test: Test C flooded paddy test; format: in vivo, Heteranthera limosa
[10] = tested on: barnyardgrass; test: Test C flooded paddy test; format: in vivo, Echinochloa crus-galli
Method in brief: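 Greenhouse test with a 12–14 day hold after application and visual comparison with controls. Emerged plants were 1- to 4-leaf stage (2–18 cm) when sprayed postemergence, and the paddy barnyardgrass was at 2 leaves under flooded conditions. 100 = complete control.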

[11] = 125 g ai/ha, scale 0 (no effect) to 100 (complete control), visual, 12 to 14 days
[12] = 250 g ai/ha, scale 0 to 100 (0 no effect, 100 complete control), visual, 12 to 14 days
[13] = 500 g ai/ha, scale 0 to 100, 0 no effect, 100 complete control
[14] = 62 g ai/ha, scale 0 to 100 (0 no effect, 100 complete control)
[15] = 125 g ai/ha, scale of 0 to 100, 0 is no effect, 100 is complete control
[16] = 62 g ai/ha, scale 0 to 100, 0 no effect, 100 complete control
[17] = 125 g ai/ha, scale 0 to 100 (0 no effect, 100 complete control)
[18] = 250 g ai/ha, scale of 0 to 100, 0 is no effect, 100 is complete control
[19] = 500 g ai/ha, visual rating after 12 to 14 days, scale 0 to 100 (0 no effect, 100 complete control)
[20] = 500 g ai/ha, scale 0 to 100 (0 no effect, 100 complete control), visual, 12 to 14 days

SMILES: CCN(C)C(=O)c1cccc(NC(=O)c2cc(C(C)(C)C)nn2CC)c1 [Compound 48]
- Plant response rating (0 = no effect, 100 = complete control), Bermudagrass ([1]; 62 g ai/ha): 80
- Plant response rating, Bermudagrass [1, 11]: 90
- Plant response rating, Bermudagrass [1, 12]: 90
- Bermudagrass plant response rating [1, 13]: 95
- Plant response rating (0 = no effect, 100 = complete control), Crabgrass, Large ([2]; 62 g ai/ha): 0
- Plant response rating, Crabgrass, Large [2, 11]: 30
- Plant response rating, Crabgrass, Large [2, 12]: 70
- Crabgrass, Large plant response rating ([2]; 500 g ai/ha): 90
- Plant response rating (0 = no effect, 100 = complete control), Foxtail, Giant ([3]; 62 g ai/ha): 0
- Plant response rating, Foxtail, Giant [3, 11]: 0
- Plant response rating, Foxtail, Giant [3, 12]: 10
- Foxtail, Giant plant response rating ([3]; 500 g ai/ha): 50
- Plant response rating (0 = no effect, 100 = complete control), Kochia ([4]; 62 g ai/ha): 10
- Plant response rating, Kochia [4, 11]: 60
- Plant response rating, Kochia [4, 12]: 80
- Kochia plant response rating ([4]; 500 g ai/ha): 100
- Plant response rating (0 = no effect, 100 = complete control), Lambsquarters ([5]; 62 g ai/ha): 85
- Plant response rating, Lambsquarters [5, 11]: 95
- Plant response rating, Lambsquarters [5, 12]: 95
- Lambsquarters plant response rating ([5]; 500 g ai/ha): 95
- Plant response rating (0 = no effect, 100 = complete control), Soybean ([6]; 62 g ai/ha): 0
- Plant response rating, Soybean [6, 11]: 0
- Plant response rating, Soybean [6, 12]: 0
- Soybean plant response rating ([6]; 500 g ai/ha): 30
- Plant response rating (0 = no effect, 100 = complete control), Sunflower ([7]; 62 g ai/ha): 0
- Plant response rating, Sunflower [7, 11]: 0
- Plant response rating, Sunflower [7, 12]: 0
- Sunflower plant response rating ([7]; 500 g ai/ha): 0
- Rice plant response rating ([8]; 16 g ai/ha, scale 0 to 100): 0
- Rice plant response rating ([8]; 31 g ai/ha, scale 0 to 100): 0
- Rice plant response rating [8, 14]: 0
- Rice plant response rating [8, 15]: 20
- Ducksalad plant response rating ([9]; 16 g ai/ha, scale 0 to 100): 0
- Ducksalad plant response rating ([9]; 31 g ai/ha, scale 0 to 100): 0
- Ducksalad plant response rating [9, 14]: 20
- Ducksalad plant response rating [9, 15]: 40
- Barnyardgrass plant response rating ([10]; 16 g ai/ha, scale 0 to 100): 0
- Barnyardgrass plant response rating ([10]; 31 g ai/ha, scale 0 to 100): 0
- Barnyardgrass plant response rating [10, 14]: 0
- Barnyardgrass plant response rating [10, 15]: 0

SMILES: CCn1nc(C(C)(C)C)cc1C(=O)Nc1cccc(C(N)=O)n1 [Compound 162, 6-[[[3-(1,1-dimethylethyl)-1-ethyl-1H-pyrazol-5-yl]carbonyl]amino]-2-pyridinecarboxamide]
- Plant response rating, Bermudagrass [1, 16]: 0
- Plant response rating, Bermudagrass [1, 11]: 0
- Plant response rating, Bermudagrass [1, 12]: 20
- Bermudagrass plant response rating [1, 13]: 40
- Plant response rating, Crabgrass, Large ([2]; 62 g ai/ha, scale 0 to 100): 35
- Plant response rating, Crabgrass, Large [2, 11]: 40
- Plant response rating, Crabgrass, Large [2, 12]: 80
- Crabgrass, Large plant response rating ([2]; 500 g ai/ha): 100
- Plant response rating, Foxtail, Giant ([3]; 62 g ai/ha, scale 0 to 100): 55
- Plant response rating, Foxtail, Giant [3, 11]: 60
- Plant response rating, Foxtail, Giant [3, 12]: 60
- Foxtail, Giant plant response rating ([3]; 500 g ai/ha): 75
- Plant response rating, Kochia ([4]; 62 g ai/ha, scale 0 to 100): 65
- Plant response rating, Kochia [4, 11]: 75
- Kochia plant response rating ([4]; 500 g ai/ha): 100
- Plant response rating, Lambsquarters ([5]; 62 g ai/ha, scale 0 to 100): 80
- Plant response rating, Lambsquarters [5, 11]: 95
- Lambsquarters plant response rating ([5]; 500 g ai/ha): 100
- Plant response rating, Soybean ([6]; 62 g ai/ha, scale 0 to 100): 15
- Plant response rating, Soybean [6, 11]: 75
- Soybean plant response rating ([6]; 500 g ai/ha): 100
- Plant response rating, Sunflower ([7]; 62 g ai/ha, scale 0 to 100): 0
- Plant response rating, Sunflower [7, 11]: 15
- Sunflower plant response rating ([7]; 500 g ai/ha): 90
- Rice plant response rating [8, 14]: 55
- Rice plant response rating [8, 17]: 60
- Rice plant response rating [8, 18]: 70
- Plant response rating, Rice [8, 19]: 75
- Ducksalad plant response rating [9, 14]: 70
- Ducksalad plant response rating [9, 17]: 85
- Ducksalad plant response rating [9, 18]: 95
- Plant response rating, Ducksalad [9, 19]: 100
- Barnyardgrass plant response rating [10, 14]: 45
- Barnyardgrass plant response rating [10, 15]: 65
- Barnyardgrass plant response rating [10, 18]: 75
- Plant response rating, Barnyardgrass [10, 19]: 90

SMILES: C=CCNC(=O)c1cccc(NC(=O)c2nn(C(C)(C)C)nc2CC)c1 [Compound 414]
- Plant response rating, Bermudagrass [1, 16]: 100
- Plant response rating (0 = no effect, 100 = complete control), Bermudagrass ([1]; 125 g ai/ha): 100
- Plant response rating, Bermudagrass ([1]; 250 g ai/ha, scale 0-100): 100
- Plant response rating, Bermudagrass [1, 20]: 100
- Plant response rating, Crabgrass, Large ([2]; 62 g ai/ha, scale 0 to 100): 100
- Plant response rating (0 = no effect, 100 = complete control), Crabgrass, Large ([2]; 125 g ai/ha): 100
- Plant response rating, Crabgrass, Large ([2]; 250 g ai/ha, scale 0-100): 100
- Plant response rating, Crabgrass, Large [2, 20]: 100
- Plant response rating, Foxtail, Giant ([3]; 62 g ai/ha, scale 0 to 100): 75
- Plant response rating (0 = no effect, 100 = complete control), Foxtail, Giant ([3]; 125 g ai/ha): 95
- Plant response rating, Foxtail, Giant ([3]; 250 g ai/ha, scale 0-100): 100
- Plant response rating, Foxtail, Giant [3, 20]: 100
- Plant response rating, Kochia ([4]; 62 g ai/ha, scale 0 to 100): 60
- Plant response rating (0 = no effect, 100 = complete control), Kochia ([4]; 125 g ai/ha): 75
- Plant response rating, Kochia ([4]; 250 g ai/ha, scale 0-100): 80
- Plant response rating, Kochia [4, 20]: 100
- Plant response rating, Lambsquarters ([5]; 62 g ai/ha, scale 0 to 100): 95
- Plant response rating (0 = no effect, 100 = complete control), Lambsquarters ([5]; 125 g ai/ha): 95
- Plant response rating, Lambsquarters ([5]; 250 g ai/ha, scale 0-100): 95
- Plant response rating, Lambsquarters [5, 20]: 100
- Plant response rating, Soybean ([6]; 62 g ai/ha, scale 0 to 100): 0
- Plant response rating (0 = no effect, 100 = complete control), Soybean ([6]; 125 g ai/ha): 20
- Plant response rating, Soybean [6, 20]: 65
- Plant response rating, Sunflower ([7]; 62 g ai/ha, scale 0 to 100): 0
- Plant response rating (0 = no effect, 100 = complete control), Sunflower ([7]; 125 g ai/ha): 0
- Plant response rating, Sunflower [7, 20]: 0
